Source: US8461107B2 (Merck Sharp & Dohme Corp., priority 2008, dated 2013)

Biological target: T1, HCV genotype 1b (BK) NS3 modified with a R155K mutation (Hepatitis C virus genotype 1b, UniProt P26663, R1181K)
T1 construct: HCV genotype 1b (BK) NS3 modified with a R155K mutation
Assay: HCV NS3 protease time-resolved fluorescence (TRF) assay, NS3 protease 1b R155K Ki activity
Assay type: biochemical
Conditions: HCV genotype 1b (BK) NS3 with R155K mutation; TRF peptide substrate 100 nM; Ki derived from IC50
Method in brief: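 Pre-incubation of NS3/NS4A protease (genotype 1b BK, R155K) with inhibitor for 30 min, then 1 h at room temperature with 100 nM TRF peptide substrate in pH 7.5 HEPES buffer with 10 mM DTT. Reaction quenched with pH 5.5 MES; time-resolved fluorescence read (ex 340/em 615 nm). Ki derived from four-parameter IC50 fit via IC50=Ki(1+[S]/KM).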

Row | Structure (SMILES) | Ki [nM]
1 | CC[C@@H]1C[C@]1(NC(=O)[C@@H]1C[C@@H]2CN1C(=O)[C@H](C1CCCC1)NC(=O)O[C@@H]1CCC[C@H]1CCCCCn1c(cc3cc(Cl)ccc3c1=O)O2)C(=O)NS(=O)(=O)C1CC1 [(3aR,7S,10S,12R,25aR)-16-chloro-7-cyclopentyl-N-((1R,2R)-1-{[(cyclopropylsulfonyl)amino]carbonyl}-2-ethylcyclopropyl)-5,8,19-trioxo-1,2,3,3a,5,6,7,8,11,12,21,22,23,24,25,25a-hexadecahydro-10H,19H-9,12-methanocyclopenta[18,19][1,10,3,6,12]dioxatriazacyclononadecino[12,11-b]isoquinoline-10-carboxamide] | 0.1 to 0.5
2 | C=C[C@@H]1C[C@]1(NC(=O)[C@@H]1C[C@@H]2CN1C(=O)[C@H](C1CCCC1)NC(=O)O[C@@H]1CCC[C@H]1CCCCCn1c(nc3cc(Cl)ccc3c1=O)O2)C(=O)NS(=O)(=O)C1CC1 [(3aR,7S,10S,12R,25aR)-16-chloro-7-cyclopentyl-N-((1R,2S)-1-{[(cyclopropylsulfonyl)amino]carbonyl}-2-vinylcyclopropyl)-5,8,19-trioxo-1,2,3,3a,5,6,7,8,11,12,21,22,23,24,25,25a-hexadecahydro-10H,19H-9,12-methanocyclopenta[18,19][1,10,3,6,12]dioxatriazacyclononadecino[11,12-b]quinazoline-10-carboxamide] | < 0.1
3 | C=C[C@@H]1C[C@]1(NC(=O)[C@@H]1C[C@@H]2CN1C(=O)[C@H](C1CCCC1)NC(=O)O[C@@H]1CCC[C@H]1CCCCCn1c(cc3cc(Cl)ccc3c1=O)O2)C(=O)NS(=O)(=O)C1CC1 [(3aR,7S,10S,12R,25aR)-16-chloro-7-cyclopentyl-N-((1R,2S)-1-{[(cyclopropylsulfonyl)amino]carbonyl}-2-vinylcyclopropyl)-5,8,19-trioxo-1,2,3,3a,5,6,7,8,11,12,21,22,23,24,25,25a-hexadecahydro-10H,19H-9,12-methanocyclopenta[18,19][1,10,3,6,12]dioxatriazacyclononadecino[12,11-b]isoquinoline-10-carboxamide] | < 0.1
4 | C=C[C@@H]1C[C@]1(NC(=O)[C@@H]1C[C@@H]2CN1C(=O)[C@H](C1CCCC1)NC(=O)O[C@@H]1CCC[C@H]1CCCCCCn1c(cc3ccccc3c1=O)O2)C(=O)NS(=O)(=O)C1CC1 [(3aR,7S,10S,12R,26aR)-7-cyclopentyl-N-((1R,2S)-1-{[(cyclopropylsulfonyl)amino]carbonyl}-2-vinylcyclopropyl)-5,8,19-trioxo-2,3,3a,5,6,7,8,11,12,21,22,23,24,25,26,26a-hexadecahydro-1H,10H,19H-9,12-methanocyclopenta[19,20][1,10,3,6,12]dioxatriazacycloicosino[12,11-b]isoquinoline-10-carboxamide] | 0.1 to 0.5
5 | CC[C@@H]1C[C@]1(NC(=O)[C@@H]1C[C@@H]2CN1C(=O)[C@H](C(C)(C)C)NC(=O)O[C@@H]1CCC[C@H]1CCCCCCn1c(cc3ccccc3c1=O)O2)C(=O)NS(=O)(=O)C1CC1 [(3aR,7S,10S,12R,26aR)-7-tert-butyl-N-((1R,2R)-1-{[(cyclopropylsulfonyl)amino]carbonyl}-2-ethylcyclopropyl)-5,8,19-trioxo-2,3,3a,5,6,7,8,11,12,21,22,23,24,25,26,26a-hexadecahydro-1H,10H,19H-9,12-methanocyclopenta[19,20][1,10,3,6,12]dioxatriazacycloicosino[12,11-b]isoquinoline-10-carboxamide] | 1 to 5
6 | C=C[C@@H]1C[C@]1(NC(=O)[C@@H]1C[C@@H]2CN1C(=O)[C@H](C(C)(C)C)NC(=O)O[C@@H]1CCC[C@H]1CCCCCCn1c(cc3ccccc3c1=O)O2)C(=O)NS(=O)(=O)C1CC1 [(3aR,7S,10S,12R,26aR)-7-tert-butyl-N-((1R,2S)-1-{[(cyclopropylsulfonyl)amino]carbonyl}-2-vinylcyclopropyl)-5,8,19-trioxo-2,3,3a,5,6,7,8,11,12,21,22,23,24,25,26,26a-hexadecahydro-1H,10H,19H-9,12-methanocyclopenta[19,20][1,10,3,6,12]dioxatriazacycloicosino[12,11-b]isoquinoline-10-carboxamide] | 0.1 to 0.5
7 | CC[C@@H]1C[C@]1(NC(=O)[C@@H]1C[C@@H]2CN1C(=O)[C@H](C(C)(C)C)NC(=O)O[C@H]1CCC[C@@H]1CCCCCCn1c(cc3ccccc3c1=O)O2)C(=O)NS(=O)(=O)C1CC1 [(3aS,7S,10S,12R,26aS)-7-tert-butyl-N-((1R,2R)-1-{[(cyclopropylsulfonyl)amino]carbonyl}-2-ethylcyclopropyl)-5,8,19-trioxo-2,3,3a,5,6,7,8,11,12,21,22,23,24,25,26,26a-hexadecahydro-1H,10H,19H-9,12-methanocyclopenta[19,20][1,10,3,6,12]dioxatriazacycloicosino[12,11-b]isoquinoline-10-carboxamide] | 1 to 5
8 | C=C[C@@H]1C[C@]1(NC(=O)[C@@H]1C[C@@H]2CN1C(=O)[C@H](C(C)(C)C)NC(=O)O[C@H]1CCC[C@@H]1CCCCCCn1c(cc3ccccc3c1=O)O2)C(=O)NS(=O)(=O)C1CC1 [(3aS,7S,10S,12R,26aS)-7-tert-butyl-N-((1R,2S)-1-{[(cyclopropylsulfonyl)amino]carbonyl}-2-vinylcyclopropyl)-5,8,19-trioxo-2,3,3a,5,6,7,8,11,12,21,22,23,24,25,26,26a-hexadecahydro-1H,10H,19H-9,12-methanocyclopenta[19,20][1,10,3,6,12]dioxatriazacycloicosino[12,11-b]isoquinoline-10-carboxamide] | 0.5 to 1
9 | C=C[C@@H]1C[C@]1(NC(=O)[C@@H]1C[C@@H]2CN1C(=O)[C@H](C1CCCC1)NC(=O)O[C@@H]1CCC[C@H]1C/C=C/CCn1c(cc3ccccc3c1=O)O2)C(=O)NS(=O)(=O)C1CC1 [Example 1, (3aR,7S,10S,12R,23E,25aS)-7-cyclopentyl-N-((1R,2S)-1-{[(cyclopropylsulfonyl)amino]carbonyl}-2-vinylcyclopropyl)-5,8,19-trioxo-1,2,3,3a,5,6,7,8,11,12,21,22,25,25a-tetradecahydro-10H,19H-9,12-methanocyclopenta[18,19][1,10,3,6,12]dioxatiazacyclononadecino[12,11-b]isoquinoline-10-carboxamide] | < 0.1
10 | C=C[C@@H]1C[C@]1(NC(=O)[C@@H]1C[C@@H]2CN1C(=O)[C@H](C1CCCC1)NC(=O)O[C@@H]1CCC[C@H]1CCCCCn1c(cc3ccccc3c1=O)O2)C(=O)NS(=O)(=O)C1CC1 [Example 13, (3aR,7S,10S,12R,25aR)-7-cyclopentyl-N-((1R,2S)-1-{[(cyclopropylsulfonyl)amino]carbonyl}-2-vinylcyclopropyl)-5,8,19-trioxo-1,2,3,3a,5,6,7,8,11,12,21,22,23,24,25,25a-hexadecahydro-10H,19H-9,12-methanocyclopenta[18,19][1,10,3,6,12]dioxatriazacyclotionadecino[12,11-b]isoquinoline-10-carboxamide] | < 0.1
11 | CC[C@@H]1C[C@]1(NC(=O)[C@@H]1C[C@@H]2CN1C(=O)[C@H](C1CCCC1)NC(=O)O[C@@H]1CCC[C@H]1CCCCCn1c(cc3ccc(F)cc3c1=O)O2)C(=O)NS(=O)(=O)C1CC1 [Example 16, (3aR,7S,10S,12R,25aR)-7-cyclopentyl-N-((1R,2R)-1-{[(cyclopropylsulfonyl)amino]carbonyl}-2-ethylcyclopropyl)-17-flouoro-5,8,19-trioxo-1,2,3,3a,5,6,7,8,11,12,21,22,23,24,25,25a-hexadecahydro-10H,19H-9,12-methanocyclopenta[18,19][1,10,3,6,12]dioxatriazacyclononadecino[12,11-b]isoquinoline-10-carboxamide] | 0.1 to 0.5
12 | C=C[C@@H]1C[C@]1(NC(=O)[C@@H]1C[C@@H]2CN1C(=O)[C@H](C1CCCC1)NC(=O)O[C@@H]1CCC[C@H]1CCCCn1c(cc3ccccc3c1=O)O2)C(=O)NS(=O)(=O)C1CC1 [Example 19, (3aR,7S,10S,12R,24aR)-7-cyclopentyl-N-((1R,2S)-1-{[(cycloproylsulfonyl)amino]carbonyl}-2-vinylcyclopropyl)-5,8,19-trioxo-2,3,3a,5,6,7,8,11,12,21,22,23,24,24a-tetradecahydro-1H,10H,19H-9,12-methanocyclopenta[17,18][1,10,3,6,12]dioxatriazacyclooctadecino[12,11-b]isoquinoline-10-carboxamide] | 0.1 to 0.5
13 | CC[C@@H]1C[C@]1(NC(=O)[C@@H]1C[C@@H]2CN1C(=O)[C@H](C(C)(C)C)NC(=O)O[C@@H]1CCC[C@H]1CCCCCn1c(cc3cc(Cl)ccc3c1=O)O2)C(=O)NS(=O)(=O)C1CC1 [Example 28, (3aR,7S,10S,12R,25aR)-7-tert-butyl-16-chloro-N-((1R,2R)-1-{[(cyclopropylsulfonyl)amino]carbonyl}-2-ethylcyclopropyl)-5,8,19-trioxo-1,2,3,3a,5,6,7,8,11,12,21,22,23,24,25,25a-hexadecahydro-10H,19H-9,12-methanocyclopenta[18,19][1,10,3,6,12]dioxatriazacyclononadecino[12,11-b]isoquinolin-10-carboxamide] | 0.1 to 0.5
14 | C=C[C@@H]1C[C@]1(NC(=O)[C@@H]1C[C@@H]2CN1C(=O)[C@H](C1CCCC1)NC(=O)O[C@@H]1CCC[C@H]1CC/C=C/Cn1c(nc3cc(Br)ccc3c1=O)O2)C(=O)NS(=O)(=O)C1CC1 [Example 43, (3aR,7S,10S,12R,22E,25aS)-16-bromo-7-cyclopentyl-N-((1R,2S)-1-{[(cyclopropylsulfonyl)amino]carbonyl}-2-vinylcyclopropyl)-5,8,19-trioxo-1,2,3,3a,5,6,7,8,11,12,21,24,25,25a-tetradecahydro-10H,19H-9,12-methanocyclopenta[18,19][1,10,3,6,12]dioxatriazatriazacyclononadecino[11,12-b]quinazoline-10-carboxamide] | < 0.1
